Data published in patent US20070010671A1, “Novel quinazoline derivatives and methods of treatment related to the use thereof” (priority 2003, published 2007).

The molecules below were run against MCH receptor (Homo sapiens, UniProt Q99705) (assay: High throughput functional screening FLIPR/FDSS6000: inhibition of MCH-evoked intracellular Ca2+ changes). Conditions: class by percent of control at 10^-7 M or IC50.
Assay type: cell-based
Source text: Subsequently, a functional based assay was used to confirm the lead hits, referred to as FLIPR™ (the Fluorometric Imaging Plate Reader) and FDSS6000™ (Functional Drug Screening System). This assay utilized 3 non-endozenous, constitutively active version of the MCH receptor.
The FLIPR and FDSS assays are able to detect intracellular Ca^2+ concentration in cells, which can be utilized to assess receptor activation and determine whether a candidate compound is an, for example, antagonist, inverse agonist or agonist to a Gq-coupled receptor. The concentration of free Ca^2+ in the cytosol of any cell is extremely low, whereas its concentration in the extracellular fluid and endoplasmic reticulum (ER) is very high. Thus, there is a large gradient tending to drive Ca^2+ into the cytosol across both the plasma membrane and ER. The FLIPR™ and FDSS6000™ systems (Molecular Devices Corporation, HAMAMATSU Photonics K.K.) are designed to perform functional cell-based assays, such as the measurement of intracellular calcium for high-throughput screening, The measurement of fluorescent is associated with calcium release upon activation of the Gq-coupled receptors.
Fluorometric Imaging Plate Reader system was used to allow for rapid, kinetic measurements of intracellular fluorescence in 96 well microplates (or 384 well microplates). Simultaneous measurements of fluorescence in all wells can be made by FLIPR or FDSS6000™ every second with high sensitivity and precision. These systems are ideal for measuring cell-based functional assays such as monitoring the intracellular calcium fluxes that occur within seconds after activation of the Gq coupled receptor.
Briefly, the cells are seeded into 96 well at 5.5×10^4 cells/well with complete culture media (Dulbecco's Modified Eagle Medium with 10% fetal bovine serum, 2 mMi L-glutamine, 1 mM sodium pyruvate and 0.5 mg/ml G418, pH 7.4) for the assay next day. On the day of assay, the media is removed and the cells are incubated with 100 μl of loading buffer (4 μM Fluo4-AM in complete culture media containing 2.5 mM Probenicid, 0.5 mg/ml and 0.2% bovine serum albumin) in 5% CO2 incubator at 37° C. for 1 hr. The loading buffer is removed, and the cells are washed with wash buffer (Hank's Balanced Salt Solution containing 2.5 mM Probenicid, 20 mM HEPES, 0.5 mg/ml and 0.2% bovine serum albumm, pH 7.4)). One hundred fifty μl of wash buffer containing various concentrations of test compound is added to the cells, and the cells are incubated in 5% CO2 incubator at 37° C. for 3 min. Fifty μl of wash buffer containing various concentration of MCH are added to each well, and transient changes in [Ca^2+]i evokled bee MCH are monoitored using the FLIPR, or FDSS in 96 shell plates at Ex. 488 nm and Em. 530 nm for 290 second. When antagonist activity of compound is tested, 50 nM of MCH is used.
Use of FLIPR™ and FDSS6000™ can be accomplished by following manufacturer's instruction (Molecular Device Corporation and HAMAMATSU Photonics K.K.).

Row | Molecule | class
1 | Cc1cc(Br)ccc1NC(=O)N[C@H]1CC[C@@H](Nc2nc(N(C)C)c3ccccc3n2)CC1 [compound 334] | 1 (Class 1: The value of percent of control at 10^−7 M was less than 40% or the value of IC50 was less than 50 nM.)
2 | CCc1ccc(NC(=S)N[C@H]2CC[C@@H](Nc3nc(N(C)C)c4ccccc4n3)CC2)cc1 [compound 205] | 2 (Class 2: The value of percent of control at 10^−7 M was from 40% to 60% or the value of IC50 was from 50 nM to 200 nM.)
3 | N-[(cis-4-{[4-(dimethylamino)quinazolin-2-yl]amino}cyclohexyl)methyl]-N′-(2-methoxy-4-nitrophenyl)urea [compound 507] | 2 (Class 2: The value of percent of control at 10^−7 M was from 40% to 60% or the value of IC50 was from 50 nM to 200 nM.)
4 | CN(C)c1nc(N[C@H]2CC[C@@H](CNC(=O)Nc3ccccc3C(F)(F)F)CC2)nc2ccccc12 [compound 455, N-[(cis-4-{[4-(dimethylamino)quinazolin-2-yl]amino}cyclohexyl)methyl]-N′-[2-(trifluoromethyl)phenyl]urea] | 1 (Class 1: The value of percent of control at 10^−7 M was less than 40% or the value of IC50 was less than 50 nM.)
5 | COc1cc(OC)c(NC(=S)NC[C@H]2CC[C@@H](Nc3nc(N(C)C)c4ccccc4n3)CC2)cc1Cl [compound 746] | 3 (Class 3: The value of percent of control at 10^−7 M was more than 60% or the value of IC50 was more than 200 nM.)
6 | CN(C)c1nc(N[C@H]2CC[C@@H](CNC(=O)NCc3ccc(Br)cc3)CC2)nc2ccccc12 [compound 544] | 3 (Class 3: The value of percent of control at 10^−7 M was more than 60% or the value of IC50 was more than 200 nM.)
7 | CC(NC(=S)N[C@H]1CC[C@@H](Nc2nc(N(C)C)c3ccccc3n2)CC1)c1ccccc1 (relative stereo) [compound 283] | 2 (Class 2: The value of percent of control at 10^−7 M was from 40% to 60% or the value of IC50 was from 50 nM to 200 nM.)
8 | CN(C)c1nc(N[C@H]2CC[C@@H](CNC(=S)Nc3ccccc3I)CC2)nc2ccccc12 [compound 643] | 3 (Class 3: The value of percent of control at 10^−7 M was more than 60% or the value of IC50 was more than 200 nM.)
9 | CN(C)c1nc(N[C@H]2CC[C@@H](CNC(=S)Nc3cc(Cl)ccc3Cl)CC2)nc2ccccc12 [compound 592] | 3 (Class 3: The value of percent of control at 10^−7 M was more than 60% or the value of IC50 was more than 200 nM.)
10 | COc1ccc(NC(=O)NC[C@H]2CC[C@@H](Nc3nc(N(C)C)c4ccccc4n3)CC2)cc1OC [compound 523] | 3 (Class 3: The value of percent of control at 10^−7 M was more than 60% or the value of IC50 was more than 200 nM.)
11 | Cc1ccc(NC(=S)N[C@H]2CC[C@@H](Nc3nc(N(C)C)c4ccccc4n3)CC2)c(Br)c1 [compound 252] | 1 (Class 1: The value of percent of control at 10^−7 M was less than 40% or the value of IC50 was less than 50 nM.)
12 | COc1cc(NC(=S)NC[C@H]2CC[C@@H](Nc3nc(N(C)C)c4ccccc4n3)CC2)cc(OC)c1OC [compound 619] | 3 (Class 3: The value of percent of control at 10^−7 M was more than 60% or the value of IC50 was more than 200 nM.)
13 | COc1cccc(CNC(=S)N[C@H]2CC[C@@H](Nc3nc(N(C)C)c4ccccc4n3)CC2)c1 [compound 309, N-(cis-4-{[4-(dimethylamino)quinazolin-2-yl]amino}cyclohexyl)-N′-(3-methoxybenzyl)thiourea] | 2 (Class 2: The value of percent of control at 10^−7 M was from 40% to 60% or the value of IC50 was from 50 nM to 200 nM.)

Same assay, conditions: class by percent of control at 10^-7 M or by IC50; read-out: class

Row | Molecule | IC50 [nM]
14 | CC(NC(=O)N[C@H]1CC[C@@H](Nc2nc(N(C)C)c3ccccc3n2)CC1)c1cccc2ccccc12 (stereo partly drawn) [compound 61, N-(cis-4-{[4-(dimethylamino)quinazolin-2-yl]amino}cyclohexyl)-N′-[1-(-napthyl)ethyl]urea] | < 50
15 | CN(C)c1nc(N[C@H]2CC[C@@H](NC(=S)NC34CC5CC(CC(C5)C3)C4)CC2)nc2ccccc12 (relative stereo) [compound 200] | > 200
16 | CCN(CC)c1ccc(NC(=S)NC[C@H]2CC[C@@H](Nc3nc(N(C)C)c4ccccc4n3)CC2)cc1 [compound 811] | > 200

Next, values leading:

Row | IC50 [nM] | Molecule
17 | < 50 | Cc1ccc([N+](=O)[O-])cc1NC(=O)N[C@H]1CC[C@@H](Nc2nc(N(C)C)c3ccccc3n2)CC1 [compound 109, N-(cis-4-{[4-(dimethylamino)quinazolin-2-yl]amino}cyclohexyl)-N′-(2-methyl-5-nitrophenyl)urea]
18 | < 50 | CCCc1ccccc1NC(=O)N[C@H]1CC[C@@H](Nc2nc(N(C)C)c3ccccc3n2)CC1 [compound 114, N-(cis-4-{[4-(dimethylamino)quinazolin-2-yl]amino}cyclohexyl)-N′-(2-propylphenyl)urea]
19 | 50 to 200 | Cc1ccc(F)cc1NC(=O)N[C@H]1CC[C@@H](Nc2nc(N(C)C)c3ccccc3n2)CC1 [compound 838, N-(cis-4-{[4-(dimethylamino)quinazolin-2-yl]amino}cyclohexyl)-N′-(5-fluoro-2-methylphenyl)urea]
20 | < 50 | CN(C)c1nc(N[C@H]2CC[C@@H](NC(=O)Nc3cccc4ccccc34)CC2)nc2ccccc12 [compound 50, N-(cis-4-{[4-(dimethylamino)quinazolin-2-yl]amino}cyclohexyl)-N′-1-napthylurea]
21 | > 200 | Cc1ccc(NC(=O)N[C@H]2CC[C@@H](Nc3nc(N(C)C)c4ccccc4n3)CC2)cc1[N+](=O)[O-] [compound 829]
22 | < 50 | CN(C)c1nc(N[C@H]2CC[C@@H](NC(=O)Nc3ccc4c(c3)OCO4)CC2)nc2ccccc12 [compound 120, N-1,3-benzodioxol-5-yl-N′-(cis-4-{[4-(dimethylamino)quinazolin-2-yl]amino}cyclohexyl)urea]

Same assay, conditions: class by percent of control at 10^−7 M or by IC50; read-out: class

Row | Molecule | IC50 [nM]
23 | CN(C)c1nc(N[C@H]2CC[C@@H](CNC(=O)Nc3cc(Cl)cc(Cl)c3)CC2)nc2ccccc12 [Example 1024, N-(3,5-dichlorophenyl)-N′-[(cis-4-{[4-(dimethylamino)quinazolin-2-yl]amino}cyclohexyl)methyl]urea] | < 50
24 | COc1ccc([C@H](C)NC(=O)[C@H]2CC[C@@H](Nc3nc(N(C)C)c4ccccc4n3)CC2)cc1 [Example 1190, cis-4-{[4-(dimethylamino)quinazolin-2-yl]amino}-N-[(1S)-1-(4-methoxyphenyl)ethyl]cyclohexanecarboxamide] | < 50
25 | CN(C)c1nc(N[C@H]2CC[C@@H](CNC(=O)c3ccc(C(F)(F)F)c(F)c3)C2)nc2ccccc12 [Example 1124, N-[((1R,3S)-3-{[4-(dimethylamino)quinazolin-2-yl]amino}-cyclopentyl)methyl]-3-fluoro-4-(trifluoromethyl)benzamide] | > 200
26 | CN(C)c1nc(N[C@H]2CC[C@@H](NC(=O)c3cccnc3Oc3ccc(Cl)c(F)c3)CC2)nc2ccccc12 [Example 1042, 2-(4-chloro-3-fluorophenoxy)-N-(cis-4-{[4-(dimethylamino)quinazolin-2-yl]amino}cyclohexyl)nicotinamide] | < 50
27 | CN(C)c1nc(N[C@H]2CC[C@@H](CNC(=O)C(O)c3ccc(Cl)cc3)CC2)nc2ccccc12 (relative stereo) [Example 1099, 2-(4-chlorophenyl)-N-[(cis-4-{[4-(dimethylamino)quinazolin-2-yl]amino}cyclohexyl)methyl]-2-hydroxyacetamide] | > 200
28 | COc1ccc(C(O)C(=O)NC[C@H]2CC[C@@H](Nc3nc(N(C)C)c4ccccc4n3)CC2)cc1 (relative stereo) [Example 1096, N-[(cis-4-{[4-(dimethylamino)quinazolin-2-yl]amino}-cyclohexyl)-methyl]-2-hydroxy-2-(4-methoxyphenyl)acetamide] | 50 to 200
29 | CN(C)c1nc(N[C@H]2CC[C@@H](NC(=O)c3cccnc3Oc3ccccc3Cl)CC2)nc2ccccc12 [Example 1031, 2-(2-chlorophenoxy)-N-(cis-4-{[4-(dimethylamino)quinazolin-2-yl]amino}cyclohexyl)nicotinamide] | < 50
30 | CN(C)c1nc(N[C@H]2CC[C@@H](C(=O)NCc3ccc(C(F)(F)F)cc3)CC2)nc2cc(F)c(F)cc12 [Example 999, cis-4-{[4-(dimethylamino)-6,7-difluoroquinazolin-2-yl]amino}-N-[4-(trifluoromethyl)benzyl]cyclohexanecarboxamide] | 50 to 200
